Experimental data from patent US8168199B2, “Dipeptidyl peptidase IV inhibitors for the treatment of schizophrenia and depression” (priority 2000, dated 2012).

Tested on: Male WistarF/Han (WF) rats
Assay: Social interaction (SI) test of anxiety, i.c.v. P32/98 and NPY (Example 3)
Assay type: in vivo, rat
Details: i.c.v. 5 pmol-500 nmol
Protocol: Animals. […]
Animals were randomly divided into two sets of four experimental groups (n=5-6/group), which completed different consecutive SI test of anxiety. […] The time spent in active social interaction (SI-time), 1 h and 12 h food-intake were measured. […]
Social interaction (SI) test. […] Behavior was monitored using a video camera placed above the field inside the testing/isolation box. The SI behavior of both rats was recorded on-line from a monitor placed outside on top of the box. The following parameters were scored by an observer (HPN) unaware of the substrain of rats: duration of time spent in sniffing, following, crawling under and over other rats, but not passive body contact (resting, sleeping). […]
Statistical analysis. Data from repeated observations (food intake) were analyzed by two-way analyses of variance for repeated measures (ANOVA) (factors: “substrain” and “food intake” as repeated measure). […]

Question: How did the “time spent in active social interaction (SI-time), P32/98 alone” value turn out when `CC[C@H](C)[C@H](N)C(=O)N1CCSC1` [P32/98] was run?
Answer: Its value is ““bell-shaped” dose-dependent anxiolytic-like effects”.
